Measured values published in ChEMBL document CHEMBL1137719, “Receptor-based 3D-QSAR studies of checkpoint Wee1 kinase inhibitors” (Eur J Med Chem, 2009).
Several values for one entry are separate records, joined by “and”; a condition that tells them apart may be missing. Identical values can stand only once.

Biological target: Wee1-like protein kinase (Homo sapiens, UniProt P30291)
Sequence (P30291 whole entry): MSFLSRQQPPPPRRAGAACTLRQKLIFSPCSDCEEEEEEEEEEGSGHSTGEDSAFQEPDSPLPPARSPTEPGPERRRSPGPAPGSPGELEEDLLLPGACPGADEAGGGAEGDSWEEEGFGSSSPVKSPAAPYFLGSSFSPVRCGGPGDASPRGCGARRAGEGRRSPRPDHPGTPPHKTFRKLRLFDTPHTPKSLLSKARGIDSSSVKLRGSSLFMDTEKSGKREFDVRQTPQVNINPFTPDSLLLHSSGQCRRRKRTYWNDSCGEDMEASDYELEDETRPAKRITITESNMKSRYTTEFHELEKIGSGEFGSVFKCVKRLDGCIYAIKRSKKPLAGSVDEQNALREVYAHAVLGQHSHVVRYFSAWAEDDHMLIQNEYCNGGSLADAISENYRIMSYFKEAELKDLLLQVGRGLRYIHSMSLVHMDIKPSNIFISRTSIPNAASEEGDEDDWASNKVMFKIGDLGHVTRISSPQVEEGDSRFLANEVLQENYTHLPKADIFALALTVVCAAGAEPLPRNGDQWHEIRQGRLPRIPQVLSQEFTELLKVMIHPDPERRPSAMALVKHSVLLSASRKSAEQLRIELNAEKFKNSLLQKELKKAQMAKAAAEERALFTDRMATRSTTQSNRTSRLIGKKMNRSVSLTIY

SMILES	IC50
O=C1NC(=O)c2c1c(I)cc1[nH]c3ccc(O)cc3c21	2340 nM
O=C1NC(=O)c2c1c(-c1ccccc1Cl)cc1c2c2cc(O)ccc2n1CC[S+]([O-])n1ccnn1 (stereo not given)	9 nM and 8.91 nM
O=C1NC(=O)c2c1c(-c1ccccc1Cl)cc1c2c2cc(O)c(OCCCn3cccc3)cc2n1CCO	24 nM
O=C1NC(=O)c2c1c(-c1ccccc1Cl)cc1c2c2cc(O)ccc2n1CCC(=O)n1ccnc1	91.2 nM and 92 nM
CC(=O)c1cccc(-c2cc3[nH]c4ccc(O)cc4c3c3c2C(=O)NC3=O)c1	4370 nM
O=C1NC(=O)c2c1ccc1c2c2cc(O)ccc2n1CCO	25.1 nM and 25 nM
CSc1ccc(-c2cc3[nH]c4ccc(O)cc4c3c3c2C(=O)NC3=O)cc1	31600 nM
Cn1c2cc([S+]([O-])CCCn3cccc3)c(O)cc2c2c3c(c(-c4ccccc4Cl)cc21)C(=O)NC3=O (stereo not given)	33 nM and 33.1 nM
O=C1NC(=O)c2c1c(-c1ccccc1Cl)cc1c2c2cc(O)c(CCCCn3cccc3)cc2n1CCO	24 nM
O=C1NC(=O)c2c1c(-c1ccccc1Cl)cc1[nH]c3cc(OCCCn4cccc4)c(O)cc3c21	36 nM and 36.3 nM
O=C1NC(=O)c2c1c(-c1c(Cl)cccc1Cl)cc1c2c2cc(O)ccc2n1CCCC(=O)N1CCOCC1	64.6 nM and 64 nM
CN(C)CCNC(=O)CCn1c2ccc(O)cc2c2c3c(ccc21)C(=O)NC3=O	170 nM
O=C1NC(=O)c2c1c(-c1c(Cl)cccc1Cl)cc1c2c2cc(O)ccc2n1CCCC(=O)n1ccnc1	58.9 nM and 59 nM
CS(=O)(=O)c1ccc(-c2cc3[nH]c4ccc(O)cc4c3c3c2C(=O)NC3=O)cc1	1120 nM and 1100 nM
O=C1NC(=O)c2c1c(-c1ccccc1Cl)cc1c2c2cc(O)ccc2n1CCCC(=O)n1ccnc1	54 nM and 53.7 nM
CNCCCn1c2ccc(O)cc2c2c3c(ccc21)C(=O)NC3=O	282 nM and 280 nM
CN1CCN(CCCn2c3ccc(O)cc3c3c4c(ccc32)C(=O)NC4=O)CC1	302 nM and 300 nM
O=C1NC(=O)c2c1c(-c1ccc(-c3ccccc3)cc1)cc1[nH]c3ccc(O)cc3c21	40000 nM
Cn1c2ccc(O)cc2c2c3c(ccc21)C(=O)NC3=O	141 nM and 140 nM
O=C1NC(=O)c2c1c(-c1ccccc1Cl)cc1c2c2cc(O)ccc2n1CCSn1ccnn1	24 nM
O=C1NC(=O)c2c1c(-c1ccccc1Cl)cc1c2c2cc(O)ccc2n1CCC(=O)N1CCOCC1	64.6 nM and 64 nM
O=C1NC(=O)c2c1c(-c1ccccc1Cl)cc1c2c2cc(O)ccc2n1CCS(=O)(=O)n1ccnn1	19 nM and 19.1 nM
Cn1c2cc(SCCCn3cccc3)c(O)cc2c2c3c(c(-c4ccccc4Cl)cc21)C(=O)NC3=O	20 nM

SMILES	IC50
O=C1NC(=O)c2c1c(-c1c(Cl)cccc1Cl)cc1c2c2cc(O)ccc2n1CCC(=O)N1CCOCC1	110 nM
O=C1NC(=O)c2c1c(-c1c(Cl)cccc1Cl)cc1c2c2cc(O)ccc2n1CCC(=O)n1ccnc1	120 nM
O=C1NC(=O)c2c1c(-c1cccc(O)c1Cl)cc1[nH]c3ccc(O)cc3c21	28.2 nM
O=C1NC(=O)c2c1ccc1c2c2cc(O)ccc2n1CCC(=O)N1CCOCC1	140 nM and 141 nM
O=C1NC(=O)c2c1ccc1c2c2cc(O)ccc2n1CCCO	200 nM
Nc1cc(-c2cc3[nH]c4ccc(O)cc4c3c3c2C(=O)NC3=O)ccc1Cl	24 nM
O=C1NC(=O)c2c1ccc1c2c2cc(O)ccc2n1CCC(=O)n1ccnc1	229 nM and 230 nM
O=C1NC(=O)c2c1ccc1c2c2cc(O)ccc2n1CCCNc1ccccc1	93.3 nM and 93 nM
O=C1NC(=O)c2c1cc(-c1ccccc1)c1[nH]c3ccc(O)cc3c21	4070 nM
O=C1NC(=O)c2c1ccc1c2c2cc(O)ccc2n1CCCC(=O)n1ccnc1	110 nM
Cn1c2cc(CCCCn3cccc3)c(O)cc2c2c3c(c(-c4ccccc4Cl)cc21)C(=O)NC3=O	36 nM and 36.3 nM
O=C1NC(=O)c2c1ccc1c2c2cc(O)ccc2n1CCCC(=O)N1CCOCC1	288 nM and 290 nM
O=C(O)CCn1c2ccc(O)cc2c2c3c(ccc21)C(=O)NC3=O	22.9 nM and 23 nM
CN(C)CCCn1c2ccc(O)cc2c2c3c(ccc21)C(=O)NC3=O	360 nM and 363 nM
O=C1NC(=O)c2c1c(-c1ccccc1)c(-c1ccccc1)c1[nH]c3ccc(O)cc3c21	2340 nM
Cn1c2cc(S(=O)(=O)NCCn3cccc3)c(O)cc2c2c3c(c(-c4ccccc4Cl)cc21)C(=O)NC3=O	46 nM and 45.7 nM
O=C1NC(=O)c2c1c(-c1ccccc1Cl)cc1[nH]c3cc(CCCCn4cccc4)c(O)cc3c21	50 nM and 50.1 nM
CN(C)CCn1c2ccc(O)cc2c2c3c(ccc21)C(=O)NC3=O	200 nM
O=C1NC(=O)c2c1c(-c1ccccc1Cl)cc1c2c2c(n1CCO)=CC(OCCCn1cccc1)C(O)(O)C=2 (stereo not given)	18 nM and 18.2 nM
NN1C(=O)c2c(-c3ccccc3)cc3[nH]c4ccc(O)cc4c3c2C1=O	3980 nM
Cn1c2cc(S(=O)(=O)CCCn3cccc3)c(O)cc2c2c3c(c(-c4ccccc4Cl)cc21)C(=O)NC3=O	160 nM and 158 nM
NC(=O)CCn1c2ccc(O)cc2c2c3c(ccc21)C(=O)NC3=O	20.9 nM and 21 nM
